Data: US8383581B2, “Short-chain peptides as parathyroid hormone (PTH) receptor agonist” (Cadila Healthcare Limited, priority 2009, dated 2013)
Where a SMILES comes first, the peptide text is derived from it. [ ]: non-standard residue; d: D form. ξ: configuration not given here. ξαMeBip(2'-Et,4'-OMe) = CCc1cc(OC)ccc1-c1ccc(CC(C)(N)C(=O)O)cc1; ξBip(2'-Et-4'-OMe) = CCc1cc(OC)ccc1-c1ccc(CC(N)C(=O)O)cc1; ξαMePhe(2,6-F2) = CC(N)(Cc1c(F)cccc1F)C(=O)O; hhPhe = N[C@@H](CCCc1ccccc1)C(=O)O; hArg = N=C(N)NCCCC[C@H](N)C(=O)O; hCit = NC(=O)NCCCC[C@H](N)C(=O)O; Cit = NC(=O)NCCC[C@H](N)C(=O)O; Nle = CCCC[C@H](N)C(=O)O; Orn = NCCC[C@H](N)C(=O)O; Ac5c = NC1(C(=O)O)CCCC1; Aib = CC(C)(N)C(=O)O

Tests used:
Format in all cases: in vitro ADME
[1] = Stability of peptides in human plasma; conditions: human, plasma; for metabolised at 24 h, 2 μM: pH 7.8
How it was run: (§1)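 Peptides at 2 μM final incubated 0–24 h at 37 °C (50 mM triethanolamine-HCl, pH 7.8) in each matrix, matrix level set to degrade ~50% PTH(1-34) in 1 h; TFA-quenched, C18 HPLC at 206 nm with ESI-MS peak identification; percent degradation from peak areas at each time point.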

[2] = Stability of peptides in simulated intestinal fluid (pH 7.5); conditions: pH 7.5; for % degradation of peptides in 24 h when incubated with simulated intestinal fluid: 2 μM
How it was run: as §1

[3] = Stability of peptides in human liver microsomes; conditions: human, microsomes; for % degradation of peptides in 24 h when incubated with liver microsomes: 2 μM, pH 7.8
How it was run: as §1

[4] = Stability of peptides in simulated gastric fluid (pH 1.5; HCl, NaCl and Pepsin); conditions: pH 1.5; for % degradation of peptides in 24 h when incubated with simulated gastric fluid: 2 μM

half-life [1] | metabolised at 24 h, 2 μM [1] | half-life ([2]; simulated gi fluid) | % degradation of peptides in 24 h when incubated with simulated intestinal fluid [2] | half-life [3] | % degradation of peptides in 24 h when incubated with liver microsomes [3] | % degradation of peptides in 24 h when incubated with simulated gastric fluid [4] | half-life ([4]; simulated gi fluid) | half-life (t1/2) in liver microsomes [3] | half-life (t1/2) in simulated intestinal fluid ([2]; simulated gi fluid) | half-life (t1/2) in simulated gastric fluid ([4]; simulated gi fluid) | SMILES
> 22 h | 5% | > 24 h | 00% | 2 h | 84% | 55% | 4 h | – | – | – | CCCC[C@H](NC(=O)[C@H](CC(C)C)NC(=O)[C@H](CCC(N)=O)NC(=O)[C@@H](NC(=O)[C@H](CCC(=O)O)NC(=O)C(C)(C)NC(=O)[C@@H](NC(=O)C(C)(C)N)C(C)C)[C@@H](C)CC)C(=O)N[C@@H](Cc1c[nH]cn1)C(=O)N[C@@H](CCC(N)=O)C(=O)N[C@@H](CCCCNC(=N)N)C(=O)N[C@@H](C)C(=O)N[C@@H](CCCNC(=N)N)C(=O)NC(Cc1ccc(-c2ccc(OC)cc2CC)cc1)C(=O)N[C@@H](CCCc1ccccc1)C(N)=O (some centres unmarked) [Seq. ID. 730] (H-[Aib]V[Aib]EIQL[Nle]HQ[hArg]AR[ξBip(2'-Et-4'-OMe)][hhPhe]-NH2)
> 23 h | 9% | > 24 h | 00% | 2 h | 85% | 45% | 4 h | – | – | – | CCCC[C@H](NC(=O)[C@H](CC(C)C)NC(=O)[C@H](CCC(N)=O)NC(=O)[C@@H](NC(=O)[C@H](CCC(=O)O)NC(=O)C(C)(C)NC(=O)[C@@H](NC(=O)C(C)(C)N)C(C)C)[C@@H](C)CC)C(=O)N[C@@H](Cc1c[nH]cn1)C(=O)N[C@@H](CCC(N)=O)C(=O)N[C@@H](CCCN)C(=O)N[C@@H](C)C(=O)NC(C)(C)C(=O)NC(Cc1ccc(-c2ccc(OC)cc2CC)cc1)C(=O)N[C@@H](CCCc1ccccc1)C(N)=O (some centres unmarked) [Seq. ID. 750] (H-[Aib]V[Aib]EIQL[Nle]HQ[Orn]A[Aib][ξBip(2'-Et-4'-OMe)][hhPhe]-NH2)
> 24 h | 0% | > 24 h | 00% | 2 h | 84% | 43% | 4 h | – | – | – | CCCC[C@H](NC(=O)[C@H](CC(C)C)NC(=O)[C@H](CCC(N)=O)NC(=O)[C@@H](NC(=O)[C@H](CCC(=O)O)NC(=O)C(C)(C)NC(=O)[C@@H](NC(=O)C(C)(C)N)C(C)C)[C@@H](C)CC)C(=O)N[C@@H](Cc1c[nH]cn1)C(=O)N[C@@H](CCC(N)=O)C(=O)N[C@@H](CCCCNC(N)=O)C(=O)NC(C)(C)C(=O)NC(C)(C)C(=O)NC(Cc1ccc(-c2ccc(OC)cc2CC)cc1)C(=O)N[C@@H](CCCc1ccccc1)C(N)=O (some centres unmarked) [Seq. ID. 790] (H-[Aib]V[Aib]EIQL[Nle]HQ[hCit][Aib][Aib][ξBip(2'-Et-4'-OMe)][hhPhe]-NH2)
> 24 h | 0% | > 24 h | 00% | 2 h | 82% | 49% | 4 h | – | – | – | CCCC[C@H](NC(=O)[C@H](CC(C)C)NC(=O)[C@H](CCC(N)=O)NC(=O)[C@@H](NC(=O)[C@H](CCC(=O)O)NC(=O)C(C)(C)NC(=O)[C@@H](NC(=O)C1(N)CCCC1)C(C)C)[C@@H](C)CC)C(=O)N[C@@H](Cc1c[nH]cn1)C(=O)N[C@@H](CCC(N)=O)C(=O)NC(C)(Cc1c(F)cccc1F)C(=O)NC(C)(C)C(=O)N[C@@H](CCCNC(N)=O)C(=O)NC(Cc1ccc(-c2ccc(OC)cc2CC)cc1)C(=O)N[C@@H](CCCc1ccccc1)C(N)=O (some centres unmarked) [Seq. ID. 805] (H-[Ac5c]V[Aib]EIQL[Nle]HQ[ξαMePhe(2,6-F2)][Aib][Cit][ξBip(2'-Et-4'-OMe)][hhPhe]-NH2)
> 24 h | 0% | > 24 h | 00% | 2 h | 81% | 52% | 4 h | – | – | – | CCCC[C@H](NC(=O)C(C)(Cc1c(F)cccc1F)NC(=O)[C@H](CCC(N)=O)NC(=O)[C@@H](NC(=O)[C@H](CCC(=O)O)NC(=O)C(C)(C)NC(=O)[C@@H](NC(=O)C1(N)CCCC1)C(C)C)[C@@H](C)CC)C(=O)N[C@@H](Cc1c[nH]cn1)C(=O)N[C@@H](CCC(N)=O)C(=O)N[C@@H](CCCCNC(=N)N)C(=O)N[C@@H](C)C(=O)N[C@@H](CCCNC(=N)N)C(=O)NC(Cc1ccc(-c2ccc(OC)cc2CC)cc1)C(=O)N[C@@H](CCCc1ccccc1)C(N)=O (some centres unmarked) [Seq. ID. 811] (H-[Ac5c]V[Aib]EIQ[ξαMePhe(2,6-F2)][Nle]HQ[hArg]AR[ξBip(2'-Et-4'-OMe)][hhPhe]-NH2)
> 23 h | 1% | > 22 h | 05% | 2 h | 84% | 43% | 4 h | – | – | – | CCCC[C@H](NC(=O)C(C)(Cc1c(F)cccc1F)NC(=O)[C@H](CCC(N)=O)NC(=O)[C@@H](NC(=O)[C@H](CCC(=O)O)NC(=O)C(C)(C)NC(=O)[C@@H](NC(=O)C1(N)CCCC1)C(C)C)[C@@H](C)CC)C(=O)N[C@@H](Cc1c[nH]cn1)C(=O)N[C@@H](CCC(N)=O)C(=O)N[C@@H](CCCN)C(=O)N[C@@H](C)C(=O)N[C@@H](CCCNC(N)=O)C(=O)NC(Cc1ccc(-c2ccc(OC)cc2CC)cc1)C(=O)N[C@@H](CCCc1ccccc1)C(N)=O (some centres unmarked) [Seq. ID. 829] (H-[Ac5c]V[Aib]EIQ[ξαMePhe(2,6-F2)][Nle]HQ[Orn]A[Cit][ξBip(2'-Et-4'-OMe)][hhPhe]-NH2)
> 24 h | 0% | > 24 h | 00% | – | 33% | 00% | > 24 h | (5) h | – | – | CCCC[C@H](NC(=O)C(C)(Cc1c(F)cccc1F)NC(=O)[C@H](CCC(N)=O)NC(=O)[C@@H](NC(=O)[C@H](CCC(=O)O)NC(=O)C(C)(C)NC(=O)[C@@H](NC(=O)C(C)(C)N)C(C)C)[C@@H](C)CC)C(=O)N[C@@H](Cc1c[nH]cn1)C(=O)N[C@@H](CCC(N)=O)C(=O)N[C@@H](CCCN)C(=O)NC(C)(C)C(=O)NC(C)(Cc1c(F)cccc1F)C(=O)NC(Cc1ccc(-c2ccc(OC)cc2CC)cc1)C(=O)N[C@@H](CCCc1ccccc1)C(N)=O (some centres unmarked) [Seq. ID. 840] (H-[Aib]V[Aib]EIQ[ξαMePhe(2,6-F2)][Nle]HQ[Orn][Aib][ξαMePhe(2,6-F2)][ξBip(2'-Et-4'-OMe)][hhPhe]-NH2)
8 h | 77% | – | 45% | 1 h | 81% | 14% | – | – | (6) h | (8) h | CCCC[C@H](NC(=O)C(C)(Cc1c(F)cccc1F)NC(=O)[C@H](CCC(N)=O)NC(=O)[C@@H](NC(=O)[C@H](CCC(=O)O)NC(=O)C(C)(C)NC(=O)[C@@H](NC(=O)C(C)(C)N)C(C)C)[C@@H](C)CC)C(=O)N[C@@H](Cc1c[nH]cn1)C(=O)N[C@@H](CCC(N)=O)C(=O)N[C@@H](CCCCNC(N)=O)C(=O)N[C@@H](C)C(=O)N[C@@H](CCCNC(N)=O)C(=O)NC(Cc1ccc(-c2ccc(OC)cc2CC)cc1)C(=O)N[C@@H](CCCc1ccccc1)C(N)=O (some centres unmarked) [Seq. ID. 860] (H-[Aib]V[Aib]EIQ[ξαMePhe(2,6-F2)][Nle]HQ[hCit]A[Cit][ξBip(2'-Et-4'-OMe)][hhPhe]-NH2)
> 24 h | 0% | > 24 h | 00% | – | 31% | 00% | > 24 h | (5) h | – | – | CCCC[C@H](NC(=O)C(C)(Cc1c(F)cccc1F)NC(=O)[C@H](CCC(N)=O)NC(=O)[C@@H](NC(=O)[C@H](CCC(=O)O)NC(=O)C(C)(C)NC(=O)[C@@H](NC(=O)C(C)(C)N)C(C)C)[C@@H](C)CC)C(=O)N[C@@H](Cc1c[nH]cn1)C(=O)N[C@@H](CCC(N)=O)C(=O)NC(C)(Cc1c(F)cccc1F)C(=O)N[C@@H](C)C(=O)NC(C)(Cc1c(F)cccc1F)C(=O)NC(Cc1ccc(-c2ccc(OC)cc2CC)cc1)C(=O)N[C@@H](CCCc1ccccc1)C(N)=O (some centres unmarked) [Seq. ID. 880] (H-[Aib]V[Aib]EIQ[ξαMePhe(2,6-F2)][Nle]HQ[ξαMePhe(2,6-F2)]A[ξαMePhe(2,6-F2)][ξBip(2'-Et-4'-OMe)][hhPhe]-NH2)
> 24 h | 0% | > 24 h | 00% | – | 32% | 00% | > 24 h | (5) h | – | – | CCc1cc(OC)ccc1-c1ccc(CC(C)(NC(=O)[C@H](CCCCN)NC(=O)[C@H](C)NC(=O)[C@H](CCCCNC(=N)N)NC(=O)[C@H](CCC(N)=O)NC(=O)[C@H](Cc2c[nH]cn2)NC(=O)[C@H](CCSC)NC(=O)[C@H](CC(C)C)NC(=O)[C@H](CCC(N)=O)NC(=O)[C@@H](NC(=O)[C@H](CCC(=O)O)NC(=O)C(C)(C)NC(=O)[C@@H](NC(=O)C(C)(C)N)C(C)C)[C@@H](C)CC)C(=O)N[C@@H](CCCc2ccccc2)C(N)=O)cc1 (some centres unmarked) [Seq. ID. 890] (H-[Aib]V[Aib]EIQLMHQ[hArg]AK[ξαMeBip(2'-Et,4'-OMe)][hhPhe]-NH2)
